Measured values as given in US20230219979A1, “PYRAZOLO[1,5-a]PYRIDINE COMPOUND, PREPARATION METHOD THEREFOR AND USE THEREOF” (SHENZHEN ZHONGGE BIOLOGICAL TECHNOLOGY CO., LTD., priority 2019, published 2023).

Tests used:
VEGFR2 kinase = VEGFR2 kinase (Homo sapiens, UniProt P35968); assay: HTRF method for testing the inhibitory activity of compounds against VEGFR2; format: biochemical
RET G810R kinase = RET G810R kinase (Homo sapiens, UniProt P07949, G810R); assay: HTRF method for testing the inhibitory activity against RET G810R; format: biochemical; conditions: for IC50: HTRF; for inhibitory activity against G810R (in words): mutant strain of RET kinase
Wild-type RET kinase = Wild-type RET kinase (Homo sapiens, UniProt P07949); assay: HTRF method for testing the inhibitory activity of compounds against RET; format: biochemical; conditions: HTRF; read-out: Wild-type RET kinase
RET G810S kinase = RET G810S kinase (Homo sapiens, UniProt P07949, G810S); assay: HTRF method for testing the inhibitory activity against RET G810S; format: biochemical; conditions: for IC50: HTRF; for inhibitory activity against G810S (in words): mutant strain of RET kinase
Ba/F3-KIF5B-RET cell = target: T1, Ba/F3-KIF5B-RET cell (Homo sapiens, UniProt P07949); assay: CellTiter-Glo luminescence assay, inhibitory activity against Ba/F3-KIF5B-RET cell; format: cell-based; conditions: 72 h, read-out: Ba/F3-KIF5B-RET cell activity
T1 construct: fused on or other part: P33176 (Kinesin-1 heavy chain)
Excerpt: (C) In Vitro Screening Experiment - CellTiter-Glo Luminescence Assay for Testing The inhibitory activity of compounds against Ba/F3-KIF5B-RET cell
• 1. The mammalian cell expression vector containing human KIF5B-RET cDNA was introduced into Ba/F3 cells using the Neon® transfection system method, and the surviving clones screened by puromycin were subjected to cell growth inhibitory function experiments and Western blotting to verify cell lines with stable and high expression of RET. • 2. Cells were cultured in RPMI 1640 medium containing 10% fetal bovine serum, 1% penicillin-streptomycin, and 2 µg/mL puromycin, and then placed in a 37° C., 5% carbon dioxide cell incubator. • 3. The test compound (5 mM stock) was diluted 2.5 folds to […] with 100% dimethyl sulfoxide; and the compound was diluted into 10 concentrations at an equal ratio of 1:3 in a 384-well dilution plate. • 4. 0.2 µL of the serially diluted compound was added to a 384-well cell culture plate (Corning, 3570) using an Echo 550 pipetting system, 2 replicate wells for each concentration, and the final concentration of dimethyl sulfoxide was 0.5% (v/v). The gradient concentrations of the test compound were 5000, 1666.7, 555.5, 185.18, 61.72, 20.57, 6.858, 2.286, 0.764, 0.254 nM. • 5. 40 µL of Ba/F3-KIF5B-RET cell suspension containing 800 cells was added to each well, and incubated for 72 h in a 5% CO2 cell incubator. • 6. 20 µL of Cell Titer-Glo reagent was added to each well of the cell culture plate, and the culture system was then shaken and mixed thoroughly for 2 min to lyse the cells, the cells were then incubated at room temperature for 30 min, and the […] signal values were then read with an Envision 2104 microplate reader. • 7. By fitting the data with XLFit 5.0 based on the parameters formula, the IC50 value was calculated as: • [formula]

Sequence of RET G810R kinase (P07949 29-1114 G810R): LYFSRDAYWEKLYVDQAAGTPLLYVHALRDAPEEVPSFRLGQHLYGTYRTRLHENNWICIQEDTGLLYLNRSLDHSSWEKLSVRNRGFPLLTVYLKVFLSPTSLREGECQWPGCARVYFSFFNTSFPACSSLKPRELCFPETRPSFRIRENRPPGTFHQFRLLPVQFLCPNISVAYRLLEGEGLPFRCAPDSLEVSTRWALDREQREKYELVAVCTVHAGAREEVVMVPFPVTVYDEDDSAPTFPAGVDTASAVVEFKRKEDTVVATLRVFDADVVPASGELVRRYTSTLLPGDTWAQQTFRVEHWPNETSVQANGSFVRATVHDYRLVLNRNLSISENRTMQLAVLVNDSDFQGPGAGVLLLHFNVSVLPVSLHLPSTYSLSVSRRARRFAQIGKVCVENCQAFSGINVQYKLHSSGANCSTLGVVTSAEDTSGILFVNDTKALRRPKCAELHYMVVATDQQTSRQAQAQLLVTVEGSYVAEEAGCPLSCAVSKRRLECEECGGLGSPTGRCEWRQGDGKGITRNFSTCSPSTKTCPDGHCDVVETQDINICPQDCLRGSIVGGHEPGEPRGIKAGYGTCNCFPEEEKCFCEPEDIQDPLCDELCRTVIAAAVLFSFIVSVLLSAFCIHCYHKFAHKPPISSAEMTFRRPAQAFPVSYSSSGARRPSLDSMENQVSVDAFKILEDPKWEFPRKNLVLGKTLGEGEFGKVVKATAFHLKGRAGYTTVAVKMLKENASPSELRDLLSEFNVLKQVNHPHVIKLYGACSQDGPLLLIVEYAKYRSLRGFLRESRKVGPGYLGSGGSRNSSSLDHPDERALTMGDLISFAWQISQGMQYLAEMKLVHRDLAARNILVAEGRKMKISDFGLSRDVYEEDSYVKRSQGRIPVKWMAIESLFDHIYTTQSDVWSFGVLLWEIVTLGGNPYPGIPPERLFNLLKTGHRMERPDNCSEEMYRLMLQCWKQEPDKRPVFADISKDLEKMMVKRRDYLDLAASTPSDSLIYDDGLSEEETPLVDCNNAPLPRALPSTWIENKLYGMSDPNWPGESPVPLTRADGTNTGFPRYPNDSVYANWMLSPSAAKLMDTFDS
Sequence of VEGFR2 kinase (P35968 20-1356): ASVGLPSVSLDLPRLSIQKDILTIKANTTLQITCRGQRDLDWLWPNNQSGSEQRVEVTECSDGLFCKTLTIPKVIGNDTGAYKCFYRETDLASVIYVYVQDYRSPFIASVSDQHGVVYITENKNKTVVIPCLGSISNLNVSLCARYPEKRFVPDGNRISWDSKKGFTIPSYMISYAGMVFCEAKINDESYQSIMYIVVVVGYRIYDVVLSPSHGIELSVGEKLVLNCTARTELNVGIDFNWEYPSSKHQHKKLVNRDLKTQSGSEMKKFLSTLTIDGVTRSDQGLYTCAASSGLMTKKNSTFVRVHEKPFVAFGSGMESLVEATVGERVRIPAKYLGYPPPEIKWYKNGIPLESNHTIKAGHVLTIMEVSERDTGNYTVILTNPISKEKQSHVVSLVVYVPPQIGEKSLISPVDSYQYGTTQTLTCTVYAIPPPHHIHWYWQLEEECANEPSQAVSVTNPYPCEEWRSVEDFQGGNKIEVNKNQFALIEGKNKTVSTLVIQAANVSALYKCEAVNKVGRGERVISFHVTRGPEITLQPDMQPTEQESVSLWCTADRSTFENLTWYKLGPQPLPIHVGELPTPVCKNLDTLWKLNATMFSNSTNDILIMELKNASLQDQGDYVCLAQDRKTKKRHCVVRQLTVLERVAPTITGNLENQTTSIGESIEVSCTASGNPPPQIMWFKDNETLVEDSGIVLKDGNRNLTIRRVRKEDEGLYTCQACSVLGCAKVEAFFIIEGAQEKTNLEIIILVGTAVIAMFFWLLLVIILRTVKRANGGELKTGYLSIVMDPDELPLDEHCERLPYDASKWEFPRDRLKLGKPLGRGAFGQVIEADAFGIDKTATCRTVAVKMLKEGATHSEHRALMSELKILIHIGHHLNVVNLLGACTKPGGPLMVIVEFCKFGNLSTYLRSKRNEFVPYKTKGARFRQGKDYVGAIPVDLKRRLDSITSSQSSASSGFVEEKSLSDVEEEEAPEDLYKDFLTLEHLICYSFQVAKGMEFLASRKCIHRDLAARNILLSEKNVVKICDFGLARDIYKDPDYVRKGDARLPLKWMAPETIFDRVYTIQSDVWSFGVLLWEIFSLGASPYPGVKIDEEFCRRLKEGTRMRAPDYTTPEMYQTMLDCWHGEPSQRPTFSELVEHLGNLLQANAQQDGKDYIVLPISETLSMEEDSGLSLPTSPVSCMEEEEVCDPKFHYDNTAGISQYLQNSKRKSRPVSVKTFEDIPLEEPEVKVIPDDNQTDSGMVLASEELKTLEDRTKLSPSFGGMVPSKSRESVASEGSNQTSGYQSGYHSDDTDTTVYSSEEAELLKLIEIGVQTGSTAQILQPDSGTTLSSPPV
Sequence of Wild-type RET kinase (P07949 29-1114): as the sequence (P07949 29-1114 G810R) above, with R782G counted along it
T1 sequence (P07949 whole entry, stated change not applied, the tested form may be a part): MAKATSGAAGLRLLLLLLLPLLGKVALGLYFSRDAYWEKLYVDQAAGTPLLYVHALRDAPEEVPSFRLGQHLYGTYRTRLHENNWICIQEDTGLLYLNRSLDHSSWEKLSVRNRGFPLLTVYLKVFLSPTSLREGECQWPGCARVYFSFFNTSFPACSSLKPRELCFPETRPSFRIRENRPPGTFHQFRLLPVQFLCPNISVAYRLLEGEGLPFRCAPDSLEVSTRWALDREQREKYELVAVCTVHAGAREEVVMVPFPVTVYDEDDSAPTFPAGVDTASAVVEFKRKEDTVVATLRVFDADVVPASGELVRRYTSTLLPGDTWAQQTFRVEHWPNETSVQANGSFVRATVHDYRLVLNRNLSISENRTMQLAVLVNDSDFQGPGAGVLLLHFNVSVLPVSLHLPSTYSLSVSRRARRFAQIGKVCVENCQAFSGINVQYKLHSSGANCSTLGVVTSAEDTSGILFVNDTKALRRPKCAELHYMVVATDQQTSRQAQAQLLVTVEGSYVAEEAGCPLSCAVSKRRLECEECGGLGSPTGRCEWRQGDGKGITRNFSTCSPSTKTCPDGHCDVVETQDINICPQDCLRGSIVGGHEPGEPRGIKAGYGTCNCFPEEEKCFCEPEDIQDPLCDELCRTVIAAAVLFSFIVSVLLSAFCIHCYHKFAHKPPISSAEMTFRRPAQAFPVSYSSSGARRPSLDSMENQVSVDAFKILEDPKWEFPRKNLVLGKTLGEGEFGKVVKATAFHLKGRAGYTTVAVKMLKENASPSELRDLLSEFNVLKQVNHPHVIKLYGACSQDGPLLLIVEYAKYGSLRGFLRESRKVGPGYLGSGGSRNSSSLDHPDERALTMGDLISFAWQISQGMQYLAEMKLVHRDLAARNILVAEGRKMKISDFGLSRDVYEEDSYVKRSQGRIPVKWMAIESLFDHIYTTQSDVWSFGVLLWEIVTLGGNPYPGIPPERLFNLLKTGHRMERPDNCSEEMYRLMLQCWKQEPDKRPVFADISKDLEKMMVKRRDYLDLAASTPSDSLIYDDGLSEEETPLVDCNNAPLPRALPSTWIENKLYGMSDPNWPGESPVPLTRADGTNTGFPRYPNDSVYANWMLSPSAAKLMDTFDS
Sequence of RET G810S kinase (P07949 29-1114 G810S): as the sequence (P07949 29-1114 G810R) above, with R782S counted along it

Structure (SMILES) | IC50 (VEGFR2 kinase) [nM] | IC50 (Wild-type RET kinase) [nM] | GI50 (Ba/F3-KIF5B-RET cell) [nM] | IC50 (RET G810R kinase) [nM] | inhibitory activity against G810R (in words) (RET G810R kinase) | IC50 (RET G810S kinase) [nM] | inhibitory activity against G810S (in words) (RET G810S kinase)
CCNc1cc(-c2ccc(N3CC4CC(C3)N4Cc3ccc(OC)nc3)nc2)c2c(C#N)cnn2c1 [Compound 62, 6-(ethylamino)-4-(6-(6-((6-methoxypyridin-3-yl)methyl)-3,6-diazabicyclo[3.1.1]heptan-3-yl)pyridin-3-yl)pyrazolo[1,5-a]pyridine-3-carbonitrile] | 20 | 0.21 | 1.82 | 6.22 | good inhibitory activity | 0.8 | good inhibitory activity
CCCCNc1cc(-c2ccc(N3CC4CC(C3)N4Cc3ccc(OC)nc3)nc2)c2c(C#N)cnn2c1 [Compound 68, 6-(butylamino)-4-(6-(6-((6-methoxypyridin-3-yl)methyl)-3,6-diazabicyclo[3.1.1]hept-3-yl)pyridin-3-yl)pyrazolo[1,5-a]pyridine-3-carbonitrile] | 59.8 | 0.37 | 4.19 | 49.1 | good inhibitory activity | 6.18 | good inhibitory activity
CNc1cc(-c2ccc(N3CC4CC(C3)N4Cc3ccc(OC)nc3)nc2)c2c(C#N)cnn2c1 [Compound 47, 4-(6-(6-((6-methoxypyridin-3-yl)methyl)-3,6-diazabicyclo[3.1.1]heptyl-3-yl)pyridin-3-yl)-6-(methylamino)pyrazolo[1,5-a]pyridine-3-carbonitrile] | 33.7 | 0.04 | 1.42 | 8.93 | good inhibitory activity | 1.23 | good inhibitory activity

The next lines start with results.

IC50 (VEGFR2 kinase) [nM] | IC50 (Wild-type RET kinase) [nM] | GI50 (Ba/F3-KIF5B-RET cell) [nM] | Structure (SMILES) | IC50 (RET G810R kinase) [nM] | inhibitory activity against G810R (in words) (RET G810R kinase) | IC50 (RET G810S kinase) [nM] | inhibitory activity against G810S (in words) (RET G810S kinase)
112 | 0.86 | 208 | COc1ccc(CN2C3CC2CN(c2cnc(-c4cc(OCC5C[C@H]6CC[C@@H](C5)N6)cn5ncc(C#N)c45)cn2)C3)cn1 (stereo partly drawn) [Compound 40, 6-(((1R, 5S)-8-azabicyclo[3.2.1]oct-3-yl)methoxy)-4-(5-(6-((6-methoxypyridine-3-yl)methyl)-3,6diazabicyclo[3.1.1]heptan-3-yl)pyrazin-2-yl)pyrazolo[1,5-a]pyridine-3-carbonitrile] |  |  |  | 
454 | 2.44 | 32.1 | COc1ccc(CN2C3CC2CN(c2cnc(-c4cc(OCCN5CC6(COC6)C5)cn5ncc(C#N)c45)cn2)C3)cn1 [Compound 36, 6-(2-(2-oxa-6-azaspiro[3.3]hept-6-yl)ethoxy)-4-(5-(6-((6-methoxypyridin-3-yl)methyl)-3,6-diazabicyclo[3.1.1]heptan-3-yl)pyrazin-2-yl)pyrazolo[1,5-a]pyridine-3-carbonitrile] |  |  |  | 
8.48 | 0.49 | 6.77 | COc1ccc(CN2C3CC2CN(c2ccc(-c4cc(N5CCCC5)cn5ncc(C#N)c45)cn2)C3)cn1 [Compound 55, 4-(6-(6-((6-methoxypyridin-3-yl)methyl)-3,6-diazabicyclo[3.1.1]heptyl-3-yl)pyridin-3-yl)-6-(pyrrolidin-1-yl)pyrazolo[1,5-a]pyridine-3-carbonitrile] |  |  |  | 
666 | 3.22 | 37.3 | COc1ccc(CN2C3CC2CN(c2cnc(-c4cc(OCCN5CC6CCC5C6)cn5ncc(C#N)c45)cn2)C3)cn1 (stereo not drawn) [Compound 38, 6-(2-(2-azabicyclo[2.2.1]hept-2-yl)ethoxy)-4-(5-(6-((6-methoxypyridine-3-yl)methyl)-3,6-diazabicyclo[3.1.1]heptan-3-yl)pyrazin-2-yl)pyrazolo[1,5-a]pyridine-3-carbonitrile] |  |  |  | 
259 | 1.25 | 15.6 | COc1ccc(CN2C3CC2CN(c2cnc(-c4cc(OCC(C)(C)C#N)cn5ncc(C#N)c45)cn2)C3)cn1 [Compound 39, 6-(2-cyano-2-methylpropoxy)-4-(5-(6-((6-methoxypyridin-3-yl)methyl)-3,6-diazabicyclo[3.1.1]heptan-3-yl)pyrazinpyridin-2-yl)pyrazolo[1,5-a]pyridine-3-carbonitrile] |  |  |  | 
